Measured values: ChEMBL document CHEMBL1201862, “PubChem BioAssay data set” (2004)
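Dose response: 5 concentrations. Exposure: 48 h. Format: 96-well plates. Endpoint: linear interpolation; highest concentration if not reached. At the GI50, growth is halved.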 The source made the active and inactive calls. Cut-off read from the data, not from the text of the source: active = GI50 up to about 1.1 µM and inactive = higher.

Tests used:
Assay in all cases: DTP human tumour cell line panel, 48 h
LOX IMVI = system: LOX IMVI
SN12C = system: SN12C
BT-549 = system: BT-549
K562 = system: K562
DMS-114 = system: DMS-114
HL-60 = system: HL-60
M14 = system: M14
HCT-15 = system: HCT-15
SK-MEL-2 = system: SK-MEL-2
CAKI-1 = system: CAKI-1
RXF 393 = system: RXF 393
SNB-75 = system: SNB-75
MDA-MB-231 = system: MDA-MB-231
RXF 631 = system: RXF 631
HCC 2998 = system: HCC 2998
PC-3 = system: PC-3
HCT-116 = system: HCT-116
OVCAR-3 = system: OVCAR-3
SNB-78 = system: SNB-78
MOLT-4 = system: MOLT-4
KM-20L2 = system: KM-20L2
XF498 = system: XF498
M19-MEL = system: M19-MEL
CCRF-CEM = system: CCRF-CEM
OVCAR-4 = system: OVCAR-4
RPMI-8226 = system: RPMI-8226
SF-268 = system: SF-268
SF-539 = system: SF-539
IGROV-1 = system: IGROV-1
EKVX = system: EKVX
HOP-18 = system: HOP-18
SK-MEL-5 = system: SK-MEL-5
UO-31 = system: UO-31
A549 = system: A549
SF-295 = system: SF-295
SK-OV-3 = system: SK-OV-3
LXFL 529 = system: LXFL 529
NCI-H522 = system: NCI-H522
DMS-273 = system: DMS-273
Malme-3M = system: Malme-3M
HOP-92 = system: HOP-92
A498 = system: A498
OVCAR-5 = system: OVCAR-5
NCI-H226 = system: NCI-H226
UACC-62 = system: UACC-62
UACC-257 = system: UACC-257
KM12 = system: KM12
TK-10 = system: TK-10
HT-29 = system: HT-29
SNB-19 = system: SNB-19
786-0 = system: 786-0
NCI-H23 = system: NCI-H23
NCI-H460 = system: NCI-H460
SW-620 = system: SW-620
SK-MEL-28 = system: SK-MEL-28
DLD-1 = system: DLD-1
ACHN = system: ACHN
U-251 = system: U-251
COLO 205 = system: COLO 205
HOP-62 = system: HOP-62
OVCAR-8 = system: OVCAR-8

For CC1CCC2C(C)C(=O)OC3OC4(C)CCC1C32OO4 (stereo unspecified), the GI50 (LOX IMVI) was 97.9 µM (inactive), the GI50 (SN12C) was > 92.3 µM (inactive) and the GI50 (BT-549) was 86.5 µM (inactive). For the same compound, the GI50 (K562) was 33.1 µM (inactive), the GI50 (DMS-114) was > 80.4 µM (inactive) and the GI50 (HL-60) was 37.4 µM (inactive). For the same compound, the GI50 (M14) was > 100 µM (inactive), the GI50 (HCT-15) was 98.4 µM and the GI50 (SK-MEL-2) was > 100 µM (inactive). For the same compound, the GI50 (CAKI-1) was > 100 µM (inactive), the GI50 (RXF 393) was 72.9 µM (inactive) and the GI50 (SNB-75) was 61.7 µM (inactive). The GI50 (MDA-MB-231) was 62.4 µM (inactive), the GI50 (RXF 631) was > 100 µM (inactive) and the GI50 (HCC 2998) was > 100 µM (inactive). For the same compound, the GI50 (PC-3) was 66.8 µM (inactive), the GI50 (HCT-116) was 81.7 µM (inactive) and the GI50 (OVCAR-3) was > 67.3 µM (inactive). For the same compound, the GI50 (SNB-78) was > 100 µM (inactive), the GI50 (MOLT-4) was 66.1 µM (inactive) and the GI50 (KM-20L2) was > 100 µM (inactive). For the same compound, the GI50 (XF498) was > 100 µM (inactive), the GI50 (M19-MEL) was > 100 µM (inactive) and the GI50 (CCRF-CEM) was 83 µM (inactive). The GI50 (OVCAR-4) was > 72.8 µM (inactive), the GI50 (RPMI-8226) was 53.2 µM (inactive) and the GI50 (SF-268) was > 100 µM (inactive). The GI50 (SF-539) was > 100 µM (inactive), the GI50 (IGROV-1) was > 88.9 µM (inactive) and the GI50 (EKVX) was > 97.1 µM (inactive). For the same compound, the GI50 (HOP-18) was 61.8 µM (inactive), the GI50 (SK-MEL-5) was > 96.2 µM (inactive) and the GI50 (UO-31) was 82.2 µM (inactive). For the same compound, the GI50 (A549) was 89.1 µM (inactive), the GI50 (SF-295) was > 100 µM (inactive) and the GI50 (SK-OV-3) was > 100 µM (inactive). The GI50 (LXFL 529) was 65.5 µM (inactive), the GI50 (NCI-H522) was 45.1 µM (inactive) and the GI50 (DMS-273) was > 100 µM (inactive). The GI50 (Malme-3M) was > 100 µM (inactive).

With O=C(NCCO)c1cc2c(cn1)[nH]c1ccccc12 the GI50 (LOX IMVI) was > 100 µM (inactive), the GI50 (SN12C) was > 100 µM (inactive) and the GI50 (K562) was > 100 µM (inactive). The GI50 (DMS-114) was > 100 µM (inactive), the GI50 (HL-60) was > 100 µM (inactive) and the GI50 (M14) was > 100 µM (inactive). For the same compound, the GI50 (HCT-15) was greater than 100 µM, the GI50 (HOP-92) was > 100 µM (inactive) and the GI50 (SK-MEL-2) was 16.8 µM (inactive). The GI50 (A498) was > 100 µM (inactive), the GI50 (CAKI-1) was > 100 µM (inactive) and the GI50 (OVCAR-5) was > 100 µM (inactive). For the same compound, the GI50 (NCI-H226) was > 100 µM (inactive), the GI50 (RXF 393) was > 100 µM (inactive) and the GI50 (UACC-62) was > 100 µM (inactive). For the same compound, the GI50 (SNB-75) was 69.5 µM (inactive), the GI50 (UACC-257) was > 100 µM (inactive) and the GI50 (KM12) was > 100 µM (inactive). The GI50 (TK-10) was > 100 µM (inactive), the GI50 (RXF 631) was > 100 µM (inactive) and the GI50 (HCC 2998) was 16.9 µM (inactive). The GI50 (HT-29) was > 100 µM (inactive), the GI50 (SNB-19) was > 100 µM (inactive) and the GI50 (HCT-116) was > 100 µM (inactive). The GI50 (OVCAR-3) was > 100 µM (inactive), the GI50 (SNB-78) was > 100 µM (inactive) and the GI50 (786-0) was 17.4 µM (inactive). The GI50 (NCI-H23) was > 100 µM (inactive), the GI50 (MOLT-4) was > 100 µM (inactive) and the GI50 (NCI-H460) was > 100 µM (inactive). The GI50 (KM-20L2) was > 100 µM (inactive), the GI50 (SW-620) was > 100 µM (inactive) and the GI50 (SK-MEL-28) was > 100 µM (inactive). The GI50 (XF498) was > 100 µM (inactive), the GI50 (CCRF-CEM) was > 100 µM (inactive) and the GI50 (OVCAR-4) was > 100 µM (inactive). For the same compound, the GI50 (DLD-1) was 24.7 µM (inactive), the GI50 (RPMI-8226) was > 100 µM (inactive) and the GI50 (ACHN) was > 100 µM (inactive). The GI50 (SF-268) was > 100 µM (inactive), the GI50 (SF-539) was > 100 µM (inactive) and the GI50 (IGROV-1) was > 100 µM (inactive). The GI50 (EKVX) was > 100 µM (inactive), the GI50 (U-251) was > 100 µM (inactive) and the GI50 (SK-MEL-5) was > 100 µM (inactive). For the same compound, the GI50 (UO-31) was > 100 µM (inactive), the GI50 (A549) was > 100 µM (inactive) and the GI50 (COLO 205) was > 100 µM (inactive). For the same compound, the GI50 (SF-295) was > 100 µM (inactive), the GI50 (SK-OV-3) was > 100 µM (inactive) and the GI50 (LXFL 529) was > 100 µM (inactive). For the same compound, the GI50 (HOP-62) was 17.9 µM (inactive), the GI50 (OVCAR-8) was > 100 µM (inactive) and the GI50 (NCI-H522) was > 100 µM (inactive). The GI50 (DMS-273) was > 100 µM (inactive) and the GI50 (Malme-3M) was 22.1 µM (inactive).
